Assay results from patent US7220720B2, “Melanin-concentrating hormone analogs” (Merk & Co., Inc., priority 2000, dated 2007).
Like-named read-outs stand apart in the source and are kept apart here. Where a SMILES comes first, the peptide text is derived from it. Bridges are numbered along the chain shown (N, C = ends).

Key:
human MCH receptor [1] = molecular target: T1, human MCH receptor (Homo sapiens, UniProt Q99705); experiment: Aequorin bioluminescence functional assay in 293-AEQ17 cells transfected with human MCH receptor; type: cell-based; parameters: expressed in transfected cells; host or cells: 293-AEQ17 (aequorin-expressing HEK-293 reporter line), transient lipofectamine transfection, pcDNA-3 vector; Activity Activation %: concentration or dose not given beside the values; settings: for % Activation at 10 μM: Table 1, aequorin functional assay
Protocol: The aequorin bioluminescence assay is a reliable test for measuring the activity of G protein-coupled receptors that couple through the Gα protein subunit family consisting of Gq and Gll and leads to the activation of phospholipase C, mobilization of intracellular calcium and activation of protein kinase C.
Following approximately 40 hours of expression the apo-aequorin in the cells was charged for 4 hours with coelenterazine (10 μM) under reducing conditions (300 μM reduced glutathione) in ECB buffer (140 mM NaCl, 20 mM KCl, 20 mM HEPES-NaOH [pH=7.4], 5 mM glucose, 1 mM MgCl2, 1 mM CaCl2, 0.1 mg/ml bovine serum albumin).
The cells were harvested, washed once in ECB medium and resuspended to 500,000 cells/ml. 100 μl of cell suspension (corresponding to 5×10^4 cells) was then injected into the test plate containing MCH or MCH analogs, and the integrated light emission was recorded over 30 seconds, in 0.5 second units. 20 μL of lysis buffer (0.1% final Triton X-100 concentration) was then injected and the integrated light emission recorded over 10 seconds, in 0.5 second units. The “fractional response” values for each well were calculated by taking the ratio of the integrated response to the initial challenge to the total integrated luminescence including the Triton X-100 lysis response.

human MCH receptor [2] = molecular target: T1, human MCH receptor; experiment: Radiolabeled MCH-R binding assay: inhibition of [125I]-human MCH (Phe13, Tyr19 substituted) binding to cell membranes (filter or SPA format); parameters: expressed in transfected cells
Protocol: Cell membranes were prepared on ice. Each T-75 flask was rinsed twice with 10 ml of Enzyme-free Cell Dissociation Buffer (Specialty Media, Lavallette, N.J.), and the cell monolayer was detached in an additional 10 ml of Enzyme-free Cell Dissociation Buffer by incubation at room temperature for 10 minutes. Dissociated cells were centrifuged (500×g for 10 minutes at 4° C.), resuspended in 5 ml homogenization buffer (10 mM Tris-HCl, pH 7.4, 0.01 mM Pefabloc, 10 μM phosphoramidon, 40 μg/ml bacitracin) and then homogenized using a glass homogenizer (10–15 strokes). The homogenate was centrifuged for 10 minutes (1,000×g at 4° C.). The resulting supernatant was then centrifuged at 38,700×g for 15 minutes at 4° C. Pelleted membranes were resuspended (passed through 25 gauge needle 5 times), snap-frozen on liquid nitrogen, and stored at −80° C. until use.
Binding was performed in a 96-well filter assay or Scintillation Proximity Assay (SPA)-based format using cell membranes from a stable CHO or HEK-293 cell line expressing the MCH receptor. For the filter assay, reactions were performed at 20° C. for 1 hour in a total volume of 0.2 ml containing: 0.05 ml of membrane suspension (˜3 μg protein), 0.02 ml of [^125I]-human MCH (Phe^13, Tyr^19 substituted; 30 pM), 0.01 ml of competitor and 0.12 ml of binding buffer (50 mM Tris-HCl, pH 7.4, 10 mM MgCl2, 2 mM EDTA, 200 μg/ml bacitracin, 1 μM phosphoramidon).
Bound radioligand was separated by rapid vacuum filtration (Packard Filtermate 96-well cell harvester) through GF/C filters pretreated for 1 hour with 1% polyethylenimine. After application of the membrane suspension to the filter, the filters were washed 3 times with 3 ml each of ice-cold 50 mM Tris-HCl, pH 7.4, 10 mM MgCl2, 2 mM EDTA, 0.04% Tween 20 and the bound radioactivity on the filters was quantitated by scintillation counting (TopCount device).
For the SPA-based assay, WGA-PVT beads (NEN Life Sciences Products) were resuspended in Dulbecco's PBS with calcium and magnesium (500 mg beads in 4 ml PBS). For each 96-well assay plate, 0.18 ml of beads was pre-coated with MCH receptor by mixing with 0.2 ml MCH receptor CHO cell membranes (˜0.2–4 mg protein) and 1.5 ml SPA assay buffer (50 mM Tris-HCl, pH 7.4, 10 mM MgCl2, 2 mM EDTA, 0.1% BSA, 12% glycerol). The suspension was mixed gently for 20 minutes, 12.3 ml of assay buffer and protease inhibitors were added (final concentration given): 2 μg/ml leupeptin, 10 μM phosphoramidon, 40 μg/ml bacitracin, 5 μg/ml aprotinin, 0.1 mM Pefabloc.
Coated beads were kept on ice until use. For each well, 0.145 ml of beads were added to Optiplate assay plates (Packard 6005190), followed by 0.002–0.004 ml of competitor and 0.05 ml of [^125I]-human MCH (Phe^13, Tyr^19 substituted; 30 pM). Binding reactions were allowed to proceed at room temperature for 3 hours. Quantitation was performed by scintillation counting (TopCount device).

[3] = Table 5, position 10 modification
[4] = Table 5, position 10 modification, read-out: Activity IC50
[5] = Table 1, SPA based assay, read-out: Binding Assay IC50
[6] = Table 3, N-methyl-amino acid analogs
[7] = Table 6, position 13 modification
[8] = Table 7, combinations and position 8

T1 sequence (Q99705 whole entry): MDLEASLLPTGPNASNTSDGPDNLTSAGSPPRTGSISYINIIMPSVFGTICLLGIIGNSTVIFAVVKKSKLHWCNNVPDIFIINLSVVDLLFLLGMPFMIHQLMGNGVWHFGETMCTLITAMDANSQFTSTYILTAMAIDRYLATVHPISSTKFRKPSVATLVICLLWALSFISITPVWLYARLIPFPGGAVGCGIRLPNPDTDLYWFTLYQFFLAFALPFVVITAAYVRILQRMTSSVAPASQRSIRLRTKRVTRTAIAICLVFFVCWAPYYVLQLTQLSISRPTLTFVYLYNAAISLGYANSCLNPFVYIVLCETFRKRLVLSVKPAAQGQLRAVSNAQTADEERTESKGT

| Activity Activation % (human MCH receptor [1]; [3]) | IC50 (human MCH receptor [2]; [4]) | SMILES | % Activation at 10 μM (human MCH receptor [1]) | IC50 (human MCH receptor [2]; [5]) | other results |
| --- | --- | --- | --- | --- | --- |
| 4% | 700 nM | CSCC[C@@H]1NC(=O)[C@@H](NC(=O)[C@H](CCCNC(=N)N)NC(C)=O)CSSC[C@@H](C(N)=O)NC(=O)[C@@H]2CCCN2C(=O)[C@H](CCCNC(=N)N)NC(=O)[C@H](Cc2ccc(O)cc2)NC(=O)[C@H](C(C)C)NC(=O)[C@H](CCCNC(=N)N)NC(=O)[C@@H]2CCCN2C(=O)[C@H](CC(C)C)NC1=O [compound 50] |  |  |  |
| 25% | 110 nM | CSCC[C@@H]1NC(=O)[C@@H](NC(=O)[C@H](CCCNC(=N)N)NC(C)=O)CSSC[C@@H](C(N)=O)NC(=O)[C@@H]2CCCN2C(=O)[C@H](CCCNC(=N)N)NC(=O)[C@H](Cc2ccc(O)cc2)NC(=O)[C@H](C(C)C)NC(=O)[C@H](CCCNC(=N)N)NC(=O)[C@H](CCCCN)NC(=O)[C@H](CC(C)C)NC1=O [compound 53] |  |  |  |
| 12% | 190 nM | CSCC[C@@H]1NC(=O)[C@@H](NC(=O)[C@H](CCCNC(=N)N)NC(C)=O)CSSC[C@@H](C(N)=O)NC(=O)[C@@H]2CCCN2C(=O)[C@H](CCCNC(=N)N)NC(=O)[C@H](Cc2ccc(O)cc2)NC(=O)[C@H](C(C)C)NC(=O)[C@H](CCCNC(=N)N)NC(=O)[C@H](CCC(=O)O)NC(=O)[C@H](CC(C)C)NC1=O [compound 54] |  |  |  |

The remaining lines, values behind:

| SMILES | Activity Activation % (human MCH receptor [1]; [3]) | IC50 (human MCH receptor [2]; [4]) | % Activation at 10 μM (human MCH receptor [1]) | IC50 (human MCH receptor [2]; [5]) | other results |
| --- | --- | --- | --- | --- | --- |
| CSCC[C@@H]1NC(=O)[C@@H](NC(C)=O)CSSC[C@@H](C(N)=O)NC(=O)[C@@H]2CCCN2C(=O)[C@H](CCCNC(=N)N)NC(=O)[C@H](Cc2ccc(O)cc2)NC(=O)[C@H](C(C)C)NC(=O)[C@H](CCCNC(=N)N)NC(=O)CNC(=O)[C@H](CC(C)C)NC1=O [compound 9] |  |  | 74% | 1.6 nM |  |
| CSCC[C@@H]1NC(=O)[C@@H](NC(=O)[C@H](CCCNC(=N)N)NC(=O)[C@H](CC(C)C)NC(=O)[C@H](CCSC)NC(=O)[C@H](CC(=O)O)NC(=O)[C@H](Cc2ccccc2)NC(=O)[C@@H](N)CC(=O)O)CSSC[C@@H](C(N)=O)NC(=O)[C@@H]2CCCN2C(=O)[C@H](CCCNC(=N)N)NC(=O)[C@H](Cc2ccc(O)cc2)NC(=O)[C@H](C(C)C)NC(=O)[C@H](CCCNC(=N)N)NC(=O)CNC(=O)[C@H](CC(C)C)NC1=O [compound 10] (H-DFDMLRCMLGRVYRPC-NH2; disulfide 7-16) |  |  | 99% | 0.3 nM |  |
| CSCC[C@@H]1NC(=O)[C@@H](NC(=O)[C@H](CCCNC(=N)N)NC(C)=O)CSSC[C@@H](C(N)=O)NC(=O)[C@@H]2CCCN2C(=O)[C@H](CCCNC(=N)N)NC(=O)[C@H](Cc2ccc(O)cc2)NC(=O)[C@H](C(C)C)NC(=O)[C@H](CCCNC(=N)N)NC(=O)CNC(=O)[C@H](CC(C)C)NC1=O [compound 7] | 99% | 0.5 nM | 123% |  | Activity Activation % (human MCH receptor [1]; Table 2, D-amino acid analogs): 99%; EC50 (human MCH receptor [1]; Table 2, D-amino acid analogs): 20 nM; Activity Activation % (human MCH receptor [1]; [6]): 99%; EC50 (human MCH receptor [1]; [6]): 20 nM; Activity Activation % (human MCH receptor [1]; Table 4, position 6 modification): 99%; EC50 (human MCH receptor [1]; [3]): 20 nM; Activity Activation % (human MCH receptor [1]; [7]): 99%; EC50 (human MCH receptor [1]; [7]): 20 nM; Activity Activation % (human MCH receptor [1]; [8]): 99%; EC50 (human MCH receptor [1]; [8]): 20 nM; IC50 (human MCH receptor [2]; Table 2, D-amino acid analogs, read-out: Activity IC50): 0.5 nM; IC50 (human MCH receptor [2]; Table 3, N-methyl-amino acid analogs, read-out: Activity IC50): 1.4 nM |
